In patent US20220025003A1, “REAGENTS AND METHODS FOR CONTROLLING PROTEIN FUNCTION AND INTERACTION” (University of Washington, priority 2018, published 2022):

How the values were obtained:
NS3a inactive = assay: ANR-GST pulldown with immobilized biotinylated NS3a; format: binding, hepatitis C virus; conditions: 10 μM danoprevir, 5 μM ANR-GST
Protocol: Pierce high-capacity streptavidin beads (Thermo-Fisher #P120359) were prepared by washing three times with Buffer PDA (TBS+0.05% tween+0.5 mg/mL BSA). For each condition and each replicate, beads were washed and incubated separately. The wash was performed by adding 200 μL Buffer PDA to 30 μL of a 50/50 bead slurry, inverting to mix, and spinning down (2500×g for 2 min). The supernatant was removed by pipetting, and the wash was repeated two more times to end with a 50/50 slurry of beads in wash buffer.
Purified biotinylated NS3a was prepared at a 50× final concentration and 10 μL were added to a 490 μL 50/50 slurry of streptavidin beads and Buffer PD for final NS3a concentration of 125 nM. Beads were incubated and rotated at 4° C. After one hour, beads were harvested and washed three times as described previously, ending in a 50/50 bead/buffer slurry. ANR was added to all samples at a final concentration of 5 μM. For the danoprevir treated samples, danoprevir was added to a final concentration of 10 μM. Buffer PD was added to a final volume of 500 μL, and the beads were incubated and rotated at 4° C. After 1 hour, beads were pelleted and washed three times in Buffer FDB (TBS buffer+0.05% Tween) with 5 minute incubations between washes on a rotator at 4° C. To obtain final bound protein, beads were pelleted and supernatant was aspirated, resulting in a final volume of beads of 20 μL. […]

GFP reporter = assay: Combined CXCR4 and GFP induction with scRNAs, NS3a-VPR; format: cell-based; conditions: read-out: EC50 (GFP expression)
NS3a in NIH3T3 cells = assay: Confocal microscopy for colocalization analysis (fixed cells); format: cell-based; conditions: 5 μM drug

SMILES: CC(C)(C)OC(=O)N[C@H]1CCCCC/C=C\[C@@H]2C[C@@]2(C(=O)NS(=O)(=O)C2CC2)NC(=O)[C@@H]2C[C@@H](OC(=O)N3Cc4cccc(F)c4C3)CN2C1=O [danoprevir]
- pull down of ANR-GST by immobilized NS3a inactive (NS3a inactive): inhibits the ability of immobilized NS3a inactive to pull down ANR-GST
- EC50 (GFP reporter): 790 pM
- Colocalization of DNCR2-EGFP and GNCR1-BFP with NS3a-mCherry-CAAX (NS3a in NIH3T3 cells): DNCR2/NS3a colocalization
- Localization of NS3a-mCherry with Tom20-BFP-ANR and DNCR2-EGFP-CAAX (NS3a in NIH3T3 cells): moved to the plasma membrane
- Colocalization of NS3a-mCherry with ANR-BFP-CAAX or NLS-DNCR2-EGFP (NS3a in NIH3T3 cells; 15 min): recruited NS3a to the nucleus with NLS-DNCR2-EGFP
- Colocalization of NS3a-mCherry with GNCR1-BFP-CAAX or Tom20-DNCR2-EGFP (NS3a in NIH3T3 cells; 15 min): led to colocalization with mitochondria-targeted Tom20-DNCR2-EGFP
